From US7045343B2, “Sterilization indicator test packs” (3M Innovative Properties Company, priority 1998, dated 2006)

Experiments:
[1] = system: enzyme associated with Bacillus stearothermophilus spores; assay: Rapid enzyme fluorescence readout of dual rapid readout indicators after prevacuum steam sterilization; assay type: biochemical; details: 4-pulse prevacuum steam 121° C.; for FLUORESCENCE - PERCENT POSITIVE 1 HR / FLUORESCENCE - PERCENT POSITIVE 2 HR / FLUORESCENCE - PERCENT POSITIVE 3 HR / FLUORESCENCE - PERCENT POSITIVE 4 HR / FLUORESCENCE - PERCENT POSITIVE 5 HR / FLUORESCENCE - PERCENT POSITIVE 6 HR: 7–13 min
Procedure: (§1) The indicators prepared for the Examples were dual rapid readout indicators that provided both a rapid, enzyme-based efficacy test and a confirmatory spore outgrowth test. Spores coated on the carrier strip 16 served as the source of active enzyme whose activity was measured by the rapid enzyme test. These same spores were then incubated in the spore outgrowth portion of the test.
(§2) Bacillus stearothermophilus, commercially available as ATCC 7953 from American Type Culture Collection, Rockville, Md., was grown overnight (16 hours) at 58° C. in tryptic soy broth. This culture was used to inoculate the surface of agar plates consisting of 8 g/l nutrient broth, 4 g/l yeast extract, 0.1 g/l manganese chloride and 20 g/l agar at pH 7.2. Plates were incubated at 58° C. for 72 hours. Spores were scraped from the plates and suspended in sterile distilled water. The spores were separated from the vegetative debris by centrifuging the suspension at 7000 rpm and 4° C. for 20 minutes. The supernatant was poured off and the spores were resuspended in sterile distilled water. The cleaning procedure was repeated several times. After the final wash, the spores were suspended in sterile distilled water, at a concentration of approximately 1×10^8 spores per milliliter.
(§3) The spores were then treated with the chemicals identified in Tables 1–5. All chemicals tested were obtained from commercial sources. The spores were centrifuged at 6000 rpm for 10 minutes. The supernatant and coating chemical mixtures were heated at 60–80° C. for several minutes and vortexed to get the material into solution. The spores were then mixed into the sterilant-resistant chemical solution. The sterilant-resistant chemical solution was applied to 5×25 mm, 591 A paper strips (Schleicher & Schuell, Inc., Keene, N.H.) by pipetting 10–15 microliters to each strip for a final population of about 1×10^6 spores per strip. The strips were dried 16 hours at 37° C.
(§4) The treated spore strips were placed on the bottom of the outer container 12 of the indicator 10 and a barrier was inserted between the spore strip 16 and the inner container 18, which contained enzyme substrate. A […] ( 11/16 inch) disc of polypropylene blown microfiber material, with a weight of 200 g/m^2, commercially available as “THINSULATE™ 200-B brand Thermal Insulation” from 3M Company, St. Paul, Minn., was used as the barrier. The inner container 18 contained 0.67 ml nutrient medium, consisting of 17 g of a bacteriological peptone and a 0.17 g/l of L-alanine, as well as 0.1 g 4-methylumbelliferyl-alpha-D-glucoside, commercially available from Sigma Chemical Company, St. Louis, Mo., dissolved in 200 microliters of N,N-dimethylformamide, and 0.03 g bromocresol purple pH indicator dye, per liter of water. The pH of the enzyme substrate and nutrient medium solution was adjusted to 7.6 with 0.1N sodium hydroxide.
(§5) Sterilization indicators were made as described above with each of the chemicals and concentrations described in Table 1. Control indicators were made using untreated spores. The indicators were placed in metal instrument trays and exposed at 121° C. in a Getinge Steam Sterilizer (Getinge International, Inc., 1100 Towbin Ave., Lakewood, N.J.) using a 4-pulse prevacuum cycle at 121° C. with a vacuum level of 0.075–0.085 bar and a steam pulse to 1.00 bar for each pulse. Indicators were exposed in the sterilizer for between 7 and 13 minutes. This cycle is depicted in the time-pressure diagram in FIG. 5. After exposure the inner containers containing the enzyme substrate and nutrient medium were crushed and the indicators were incubated at 60° C. The indicators were examined for fluorescence using a 3M™ ATTEST™ Model 190 Rapid Autoreader, commercially available from 3M Company, St. Paul, Minn. Additionally, spore growth, as indicated by a color change from purple to yellow, was determined visually after 168 hours of incubation at 60° C. […]

[2] = system: Bacillus stearothermophilus spores; assay: Spore outgrowth (color change) of indicators after prevacuum steam sterilization; assay type: cell-based; details: 4-pulse prevacuum steam 121° C., 7–13 min
Procedure: as §1, §2, §3, §4, §5

Tetraglyceryl Monostearate
FLUORESCENCE - PERCENT POSITIVE 1 HR ([1]; Example 1, 5 mg/ml coating): 0%
FLUORESCENCE - PERCENT POSITIVE 2 HR ([1]; Example 1, 5 mg/ml coating): 43.2%
FLUORESCENCE - PERCENT POSITIVE 3 HR ([1]; Example 1, 5 mg/ml coating): 67.6%
FLUORESCENCE - PERCENT POSITIVE 4 HR ([1]; Example 1, 5 mg/ml coating): 83.8%
FLUORESCENCE - PERCENT POSITIVE 5 HR ([1]; Example 1, 5 mg/ml coating): 94.6%
FLUORESCENCE - PERCENT POSITIVE 6 HR ([1]; Example 1, 5 mg/ml coating): 97.3%
FLUORESCENCE - PERCENT POSITIVE 1 HR ([1]; Example 1, 10 mg/ml coating): 0%
FLUORESCENCE - PERCENT POSITIVE 2 HR ([1]; Example 1, 10 mg/ml coating): 63.0%
FLUORESCENCE - PERCENT POSITIVE 3 HR ([1]; Example 1, 10 mg/ml coating): 81.5%
FLUORESCENCE - PERCENT POSITIVE 4 HR ([1]; Example 1, 10 mg/ml coating): 94.4%
FLUORESCENCE - PERCENT POSITIVE 5 HR ([1]; Example 1, 10 mg/ml coating): 96.3%
FLUORESCENCE - PERCENT POSITIVE 6 HR ([1]; Example 1, 10 mg/ml coating): 98.1%
FLUORESCENCE - PERCENT POSITIVE 1 HR ([1]; Example 1, 20 mg/ml coating): 0%
FLUORESCENCE - PERCENT POSITIVE 2 HR ([1]; Example 1, 20 mg/ml coating): 74.3%
FLUORESCENCE - PERCENT POSITIVE 3 HR ([1]; Example 1, 20 mg/ml coating): 92.9%
FLUORESCENCE - PERCENT POSITIVE 4 HR ([1]; Example 1, 20 mg/ml coating): 100.0%
FLUORESCENCE - PERCENT POSITIVE 5 HR ([1]; Example 1, 20 mg/ml coating): 100.0%
FLUORESCENCE - PERCENT POSITIVE 6 HR ([1]; Example 1, 20 mg/ml coating): 100.0%
FLUORESCENCE - PERCENT POSITIVE 1 HR ([1]; Example 1, 40 mg/ml coating): 0%
FLUORESCENCE - PERCENT POSITIVE 2 HR ([1]; Example 1, 40 mg/ml coating): 94.7%
FLUORESCENCE - PERCENT POSITIVE 3 HR ([1]; Example 1, 40 mg/ml coating): 100.0%
FLUORESCENCE - PERCENT POSITIVE 4 HR ([1]; Example 1, 40 mg/ml coating): 100.0%
FLUORESCENCE - PERCENT POSITIVE 5 HR ([1]; Example 1, 40 mg/ml coating): 100.0%
FLUORESCENCE - PERCENT POSITIVE 6 HR ([1]; Example 1, 40 mg/ml coating): 100.0%
NO. GROWTH POSITIVE 168 HR ([2]; Example 1, 5 mg/ml coating): 37
NO. GROWTH POSITIVE 168 HR ([2]; Example 1, 10 mg/ml coating): 54
NO. GROWTH POSITIVE 168 HR ([2]; Example 1, 20 mg/ml coating): 70
NO. GROWTH POSITIVE 168 HR ([2]; Example 1, 40 mg/ml coating): 19

OCC(O)COCC(O)COCC(O)COCC(O)COCC(O)COCC(O)CO (stereo not shown) [Hexaglycerol]
accuracy of sterilization indicators compared to indicators made with untreated spores [1]: did not improve the accuracy
FLUORESCENCE - PERCENT POSITIVE 1 HR ([1]; Example 2, 5 mg/ml coating): 0%
FLUORESCENCE - PERCENT POSITIVE 2 HR ([1]; Example 2, 5 mg/ml coating): 0%
FLUORESCENCE - PERCENT POSITIVE 3 HR ([1]; Example 2, 5 mg/ml coating): 0%
FLUORESCENCE - PERCENT POSITIVE 4 HR ([1]; Example 2, 5 mg/ml coating): 9.1%
FLUORESCENCE - PERCENT POSITIVE 5 HR ([1]; Example 2, 5 mg/ml coating): 45.5%
FLUORESCENCE - PERCENT POSITIVE 6 HR ([1]; Example 2, 5 mg/ml coating): 63.6%
FLUORESCENCE - PERCENT POSITIVE 1 HR ([1]; Example 2, 10 mg/ml coating): 0%
FLUORESCENCE - PERCENT POSITIVE 2 HR ([1]; Example 2, 10 mg/ml coating): 0%
FLUORESCENCE - PERCENT POSITIVE 3 HR ([1]; Example 2, 10 mg/ml coating): 5.0%
FLUORESCENCE - PERCENT POSITIVE 4 HR ([1]; Example 2, 10 mg/ml coating): 15.0%
FLUORESCENCE - PERCENT POSITIVE 5 HR ([1]; Example 2, 10 mg/ml coating): 35.0%
FLUORESCENCE - PERCENT POSITIVE 6 HR ([1]; Example 2, 10 mg/ml coating): 50.0%
FLUORESCENCE - PERCENT POSITIVE 1 HR ([1]; Example 2, 20 mg/ml coating): 0%
FLUORESCENCE - PERCENT POSITIVE 2 HR ([1]; Example 2, 20 mg/ml coating): 0%
FLUORESCENCE - PERCENT POSITIVE 3 HR ([1]; Example 2, 20 mg/ml coating): 11.1%
FLUORESCENCE - PERCENT POSITIVE 4 HR ([1]; Example 2, 20 mg/ml coating): 38.9%
FLUORESCENCE - PERCENT POSITIVE 5 HR ([1]; Example 2, 20 mg/ml coating): 50.0%
FLUORESCENCE - PERCENT POSITIVE 6 HR ([1]; Example 2, 20 mg/ml coating): 61.1%
FLUORESCENCE - PERCENT POSITIVE 1 HR ([1]; Example 2, 40 mg/ml coating): 0%
FLUORESCENCE - PERCENT POSITIVE 2 HR ([1]; Example 2, 40 mg/ml coating): 0%
FLUORESCENCE - PERCENT POSITIVE 3 HR ([1]; Example 2, 40 mg/ml coating): 26.9%
FLUORESCENCE - PERCENT POSITIVE 4 HR ([1]; Example 2, 40 mg/ml coating): 46.2%
FLUORESCENCE - PERCENT POSITIVE 5 HR ([1]; Example 2, 40 mg/ml coating): 53.8%
FLUORESCENCE - PERCENT POSITIVE 6 HR ([1]; Example 2, 40 mg/ml coating): 61.5%
FLUORESCENCE - PERCENT POSITIVE 1 HR ([1]; Example 2, 80 mg/ml coating): 0%
FLUORESCENCE - PERCENT POSITIVE 2 HR ([1]; Example 2, 80 mg/ml coating): 0%
FLUORESCENCE - PERCENT POSITIVE 3 HR ([1]; Example 2, 80 mg/ml coating): 37.5%
FLUORESCENCE - PERCENT POSITIVE 4 HR ([1]; Example 2, 80 mg/ml coating): 58.3%
FLUORESCENCE - PERCENT POSITIVE 5 HR ([1]; Example 2, 80 mg/ml coating): 70.8%
FLUORESCENCE - PERCENT POSITIVE 6 HR ([1]; Example 2, 80 mg/ml coating): 70.8%
NO. GROWTH POSITIVE 168 HR ([2]; Example 2, 5 mg/ml coating): 11
NO. GROWTH POSITIVE 168 HR ([2]; Example 2, 10 mg/ml coating): 20
NO. GROWTH POSITIVE 168 HR ([2]; Example 2, 20 mg/ml coating): 18
NO. GROWTH POSITIVE 168 HR ([2]; Example 2, 40 mg/ml coating): 26
NO. GROWTH POSITIVE 168 HR ([2]; Example 2, 80 mg/ml coating): 24
